Data on 4 compounds can be found in paper PMC4775997, “Imidazopyridazine Inhibitors of Plasmodium falciparum Calcium-Dependent Protein Kinase 1 Also Target Cyclic GMP-Dependent Protein Kinase and Heat Shock Protein 90 To Kill the Parasite at Different Stages of Intracellular Development” (Antimicrobial Agents and Chemotherapy, 2016).

Like-named read-outs stand apart in the source and are kept apart here. A value given as a limit tells only on which side of the number the result lay.

Experiment [1] deals with P. falciparum 3D7. The experiment in a line: Microscopic examination of Giemsa-stained smears (stage of action). The note with it: for Stage of action (before or after DNA synthesis): Table S1, ring-stage parasites, 10x EC50 for 48 h; for Stage of action: ring stage parasites treated with 10 times the 96-h EC50 for 48 h.
Experiment [2] deals with P. falciparum 3D7. Nature of the experiment: SYBR green I growth assay, wild-type parasites. It is filed as cell-based, Plasmodium falciparum. Particulars: for EC5048/EC5096 ratio: Table 1.
Another experiment relates to 3D7 PKG T618Q. Nature of the experiment: microbe, parasite or virus in culture. The note with it: for EC50: read-out: Parasite inhibition EC50, 3D7 PKG T618Q; for Ratio 3D7 PKG T618Q/3D7: Table S2. It is filed as cell-based, Plasmodium falciparum.
In the next experiment the target is CDPK1 (Plasmodium falciparum, UniProt P62344). Nature of the experiment: biochemical. Type of experiment: biochemical. Particulars: Table 2; read-out: Enzyme inhibition IC50, CDPK1.
Another experiment addresses T1, PfPKG (Plasmodium falciparum, UniProt Q8I719).
T1 construct: plasmids (pTrcHisC) encoding full-length PfPKG and PfPKG T618Q with N-terminal His tags; His tag (N); made in house; host or cells: E. coli Rosetta2(DE3)
The experiment in a line: Microfluidic fluorescent shift assay of cGMP-dependent protein kinase activity. Type of experiment: biochemical.

The target of a further experiment is T2, PfPKG T618Q (Plasmodium falciparum, UniProt Q8I719, T618Q).
T2 construct: plasmids (pTrcHisC) encoding full-length PfPKG and PfPKG T618Q with N-terminal His tags; His tag (N); made in house; host or cells: E. coli Rosetta2(DE3)
Nature of the experiment: biochemical. The note with it: for Selectivity PKG T618Q/PKG: Table S2. Type of experiment: biochemical.

Where [3] appears, read: SYBR green I, 48 h incubation, mean of three independent experiments (SD), read-out: EC50 after treatment for 48 h.
[4] abbreviates: SYBR green I, 96 h incubation, mean of three independent experiments (SD), read-out: EC50 after treatment for 96 h.
The mark [5] stands for this setting: Table 2, SYBR green I, 96 h, single experiment, or mean (SD) of duplicate assays, read-out: Parasite inhibition EC50, 3D7.
Setting [6] is: Table S1, single experiment with duplicate samples, or mean of triplicate experiments (SD), read-out: EC50 48 hours.
The mark [7] stands for this setting: Table 2, SYBR green I, 96 h, single experiment, or mean (SD) of duplicate assays.
Where [8] appears, read: read-out: Enzyme inhibition IC50, PKG.
The mark [9] stands for this setting: Table 2, ATP at Km 90 μM, read-out: Enzyme inhibition IC50, PKG T618Q.

T2 sequence (Q8I719 whole entry T618Q): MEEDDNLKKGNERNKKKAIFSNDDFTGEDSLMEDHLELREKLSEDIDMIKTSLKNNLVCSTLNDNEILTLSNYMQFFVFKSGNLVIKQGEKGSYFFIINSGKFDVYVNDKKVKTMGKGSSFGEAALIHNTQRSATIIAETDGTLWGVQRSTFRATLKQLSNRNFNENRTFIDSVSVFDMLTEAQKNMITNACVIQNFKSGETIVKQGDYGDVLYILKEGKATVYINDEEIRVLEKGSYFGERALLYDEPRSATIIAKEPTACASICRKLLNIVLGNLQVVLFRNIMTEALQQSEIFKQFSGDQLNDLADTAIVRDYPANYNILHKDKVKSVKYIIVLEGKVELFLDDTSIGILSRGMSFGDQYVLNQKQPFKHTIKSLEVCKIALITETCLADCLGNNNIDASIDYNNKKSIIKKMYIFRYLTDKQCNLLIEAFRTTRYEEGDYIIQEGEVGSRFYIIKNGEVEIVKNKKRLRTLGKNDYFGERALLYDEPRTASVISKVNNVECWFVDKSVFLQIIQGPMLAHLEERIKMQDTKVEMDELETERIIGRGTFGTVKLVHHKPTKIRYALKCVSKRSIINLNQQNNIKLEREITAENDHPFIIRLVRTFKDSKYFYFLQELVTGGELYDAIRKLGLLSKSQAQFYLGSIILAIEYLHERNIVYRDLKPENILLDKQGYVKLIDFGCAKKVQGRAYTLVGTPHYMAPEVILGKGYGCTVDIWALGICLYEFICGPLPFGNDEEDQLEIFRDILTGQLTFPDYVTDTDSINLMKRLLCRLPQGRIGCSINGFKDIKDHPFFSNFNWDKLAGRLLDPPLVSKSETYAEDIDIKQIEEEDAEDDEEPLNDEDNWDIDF
CDPK1, sequence (P62344 whole entry): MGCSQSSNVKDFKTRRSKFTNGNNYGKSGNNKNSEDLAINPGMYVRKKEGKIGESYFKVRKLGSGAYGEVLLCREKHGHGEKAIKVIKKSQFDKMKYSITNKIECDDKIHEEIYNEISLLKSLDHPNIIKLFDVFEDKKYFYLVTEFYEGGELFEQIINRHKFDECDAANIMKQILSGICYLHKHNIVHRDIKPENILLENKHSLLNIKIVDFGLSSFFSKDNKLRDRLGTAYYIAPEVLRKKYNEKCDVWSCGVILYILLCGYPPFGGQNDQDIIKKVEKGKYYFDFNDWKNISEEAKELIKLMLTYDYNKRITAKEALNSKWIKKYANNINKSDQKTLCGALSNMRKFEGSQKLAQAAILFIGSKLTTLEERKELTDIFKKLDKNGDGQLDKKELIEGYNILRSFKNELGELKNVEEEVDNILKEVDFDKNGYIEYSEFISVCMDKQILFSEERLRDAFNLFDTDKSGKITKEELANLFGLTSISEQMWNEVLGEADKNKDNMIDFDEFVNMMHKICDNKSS

The term EC50 denotes the concentration that produces a half-maximal response. Broadly, the IC50 is the point on the concentration scale where inhibition reaches its midpoint. As for `Fc1cccnc1Nc1ncc(-c2cnc3ccc(NC4CCC(N5CCNCC5)CC4)nn23)cn1` (stereo not shown) [Compound 28], the “Stage of action (before or after DNA synthesis)” value in the experiment with P. falciparum 3D7 [1] is on record as “late schizont (after)”. The Stage of action entry with P. falciparum 3D7 [1] is listed as “Late schizont”; in the experiment on P. falciparum 3D7 [1] (listed as Compound 28), “arrest parasites in late schizogony”. For the same compound, the concentration for a half-maximal effect (EC50) was 0.168 µM with P. falciparum 3D7 [2] (setting [3]); 0.038 µM in the experiment with P. falciparum 3D7 [2] (setting [4]); 0.059 µM in the experiment with P. falciparum 3D7 [2] (setting [5]); 0.17 µM in the experiment on P. falciparum 3D7 [2] (setting [6]); 0.04 µM with P. falciparum 3D7 [2] (Table S1, single experiment with duplicate samples, or mean of triplicate experiments (SD), read-out: EC50 96 hours); 0.64 µM in the experiment on 3D7 PKG T618Q (setting [7]). Also, the EC5048/EC5096 ratio is 4.4 in the experiment with P. falciparum 3D7 [2] and “less than 5” in the experiment on P. falciparum 3D7 [2] (listed as Compound 28). Besides, the “ratio EC5048:EC5096” value in the experiment with P. falciparum 3D7 [2] (Table S1) is given as 4.4. Moreover, the “3D7 PKG T618Q/3D7 EC50 ratio” value with 3D7 PKG T618Q (Table 2) amounted to 10.8. Besides, the “Ratio 3D7 PKG T618Q/3D7” value in the experiment with 3D7 PKG T618Q was determined as 11. The IC50 on CDPK1 is 0.012 µM; at PfPKG (setting [8]) it was 0.003 µM; at PfPKG T618Q (setting [9]) it was 31.7 µM. In addition, the “Selectivity PKG T618Q/PKG” value at PfPKG T618Q is 12100.

In the case of `NC1CCC(Nc2ccc3ncc(-c4cnc(Nc5ccccn5)c(F)c4)n3n2)CC1` (stereo not shown) [Compound 20], the “Stage of action (before or after DNA synthesis)” value in the experiment with P. falciparum 3D7 [1] is “trophozoite”. Also, in the experiment on P. falciparum 3D7 [1], the Stage of action entry is recorded as “Trophozoite”. In addition, the EC50 in the experiment on P. falciparum 3D7 [2] (Plasmodium falciparum, 3D7, 48 h, read-out: EC50 48 hours) was 0.3 µM; with P. falciparum 3D7 [2] (Plasmodium falciparum, 3D7, 48 h, read-out: EC50 after treatment for 48 h), 0.298 µM; with P. falciparum 3D7 [2] (Plasmodium falciparum, 3D7, 96 h, read-out: EC50 96 hours), 0.14 µM; in the experiment with P. falciparum 3D7 [2] (Plasmodium falciparum, 3D7, 96 h, read-out: EC50 after treatment for 96 h), 0.142 µM; with P. falciparum 3D7 [2] (Plasmodium falciparum, 3D7, 96 h, read-out: Parasite inhibition EC50, 3D7), 0.21 µM; in the experiment with 3D7 PKG T618Q (Plasmodium falciparum, 3D7, 96 h), 0.386 µM. Besides, in the experiment with P. falciparum 3D7 [2], the EC5048/EC5096 ratio came to 2.1. Further, in the experiment on P. falciparum 3D7 [2] (Table S1), the “ratio EC5048:EC5096” value is 2.1. Moreover, in the experiment on 3D7 PKG T618Q (Table 2), the “3D7 PKG T618Q/3D7 EC50 ratio” value is on record as 1.8. Further, the “Ratio 3D7 PKG T618Q/3D7” value in the experiment on 3D7 PKG T618Q came out at 2. Further, the IC50 on CDPK1 stood at 0.008 µM; at PfPKG it was 0.012 µM; against PfPKG T618Q it was 15.3 µM.

In the case of `CN1CCC(CNc2ccc3ncc(-c4cnc(Nc5ncccc5F)nc4)n3n2)CC1` [Compound 38], the “Stage of action (before or after DNA synthesis)” value in the experiment with P. falciparum 3D7 [1] is reported as “late schizont”. For the same compound, in the experiment on P. falciparum 3D7 [1], the Stage of action entry is reported as “Late schizont”. Besides, the EC50 with P. falciparum 3D7 [2] (setting [3]) is above 1000 µM; with P. falciparum 3D7 [2] (setting [4]), 0.05 µM; in the experiment on P. falciparum 3D7 [2] (setting [5]), 0.073 µM; in the experiment with 3D7 PKG T618Q (setting [7]), 0.859 µM. For the same compound, the EC5048/EC5096 ratio in the experiment with P. falciparum 3D7 [2] is reported as >1,000. The “3D7 PKG T618Q/3D7 EC50 ratio” value with 3D7 PKG T618Q (Table 2) was 11.8. Also, in the experiment with 3D7 PKG T618Q, the “Ratio 3D7 PKG T618Q/3D7” value is on record as 12. Besides, the 50% inhibitory concentration (IC50) is 0.008 µM on CDPK1, 0.004 µM on PfPKG (setting [8]) and 43.5 µM at PfPKG T618Q (setting [9]). Further, the “Selectivity PKG T618Q/PKG” value on PfPKG T618Q was determined as 12187.

Regarding `CC(C)CCNc1ccc(-c2cnc3ccc(NC4CCN(C)C4)nn23)cn1` (stereo not shown) [Compound 22], in the experiment with P. falciparum 3D7 [1], the “Stage of action (before or after DNA synthesis)” value is “trophozoite (before)”. Moreover, the Stage of action result with P. falciparum 3D7 [1] was “Trophozoite”. The concentration for a half-maximal effect (EC50) in the experiment on P. falciparum 3D7 [2] (setting [3]) turned out to be 0.546 µM; in the experiment with P. falciparum 3D7 [2] (setting [4]), 0.3 µM; in the experiment on P. falciparum 3D7 [2] (setting [5]) it was 0.215 µM; with P. falciparum 3D7 [2] (setting [6]) it was 0.55 µM; in the experiment with 3D7 PKG T618Q (setting [7]), 0.303 µM. Moreover, the EC5048/EC5096 ratio in the experiment with P. falciparum 3D7 [2] was 1.8. Also, the “ratio EC5048:EC5096” value with P. falciparum 3D7 [2] (Table S1) amounted to 1.8. The “3D7 PKG T618Q/3D7 EC50 ratio” value with 3D7 PKG T618Q (Table 2) was determined as 1.4. The “Ratio 3D7 PKG T618Q/3D7” value in the experiment with 3D7 PKG T618Q is given as 1. In addition, the half-maximal inhibitory concentration (IC50) on CDPK1 is 0.074 µM; at PfPKG (setting [8]), above 1 µM; at PfPKG T618Q (setting [9]), 37.5 µM. In addition, at PfPKG T618Q (Table 2), the “Selectivity (PKG T618Q/PKG IC50 ratio)” value is below 38.
